Measured values from patent US12528807B2, “Solid forms of {6-[(2-amino-3-chloropyridin-4-yl)sulfanyl]-3-[(3S,4S)-4-amino-3-methyl-2-oxa-8-azaspiro[4.5]decan-8-yl]-5-methylpyrazin-2-yl} methanol, a SHP2 inhibitor” (Revolution Medicines, Inc., priority 2019, dated 2026).

Assay: Relative thermodynamic stability of the anhydrous polymorphs and transition temperatures between them (thermal techniques)
Format: physicochemical
Settings: for Temperature at which the form is thermodynamically (physically) stable: approximate
Protocol: Forms A, B, C, and D are anhydrous polymorphs of Compound 1. Thermal techniques provide data that the relative stability of the forms change with temperature. Both Forms A and C are enantiotropically related to each other and to Form D; Form A is thermodynamically stable above approximately 80° C., Form C is the stable form between approximately 80 and 43° C., and Form D is physically stable below approximately 43° C. […]
Differential scanning calorimetry performed using TA instruments Q2000: Temperature calibration was performed using NIST-traceable indium metal. The sample was placed into an aluminum Tzero crimped pan and the weight was accurately recorded. A weighed aluminum pan configured as the sample pan was placed on the reference side of the cell. The samples were analyzed from −30 to 250° C. at a ramp rate of 10° C./min.
Differential scanning calorimetry performed using Mettler-Toledo DSC3+: Temperature calibration was performed using adamantane, phenyl salicylate, indium, tin, and zinc. The sample was placed into a hermetically sealed or an open aluminum DSC pan, and the weight was accurately recorded. A weighed aluminum pan configured as the sample pan was placed on the reference side of the cell. The samples were analyzed from −30 to 250° C. at a ramp rate of 10° C./min. Although thermograms are plotted by reference temperature (x-axis), results are reported according to sample temperatures.

Q: For `Cc1nc(N2CCC3(CC2)CO[C@@H](C)[C@H]3N)c(CO)nc1Sc1ccnc(N)c1Cl` [Compound 1 Form A, {6-[(2-amino-3-chloropyridin-4-yl)sulfanyl]-3-[(3S,4S)-4-amino-3-methyl-2-oxa-8-azaspiro[4.5]decan-8-yl]-5-methylpyrazin-2-yl}methanol], which “Conversion between Forms A, C, and D upon reaching the corresponding relevant temperatures” value (“Conversion between Forms A, C” below) is on record?
A: The value was “immediate (and reversible)”.

Q: And the “Relative Thermodynamic Stability of Polymorphs” value (shortened to “Relative Thermodynamic Stability”) (above ~80° C.)?
A: The value was “A > (C and D and B)”.

Q: And the “Temperature at which the form is thermodynamically (physically) stable” value (shortened to “Temperature … (physically) stable”)?
A: Its value is greater than 80 °C.

Q: And the “Temperature … (physically) stable” value (listed as Form A)?
A: Its value is greater than 80 °C.

Q: What about the “Relative Thermodynamic Stability” value (between ~43 and ~65° C.) of the same compound?
A: Its value is “C > D > A > B”.

Q: And the “Relative Thermodynamic Stability” value (between ~65 and ~80° C.)?
A: Its value is “C > A > (D and B)”.

Q: And the “Relationship to Form B (table of estimated transition point temperatures)” value (relative to Form B)?
A: Its value is “monotropic”.

Q: What about the “Relative Thermodynamic Stability” value (subambient up to ~43° C.) of the same compound?
A: Its value is “D > C > A > B”.

Q: And the “Estimated Transition Point Temperature between Enantiotropic Polymorphs, to Form C” value (transition to Form C)?
A: Its value is roughly 80 °C.

Q: And the “Estimated Transition Point Temperature between Enantiotropic Polymorphs, to Form D” value?
A: The value was roughly 65 °C.

Q: For `Cc1nc(N2CCC3(CC2)CO[C@@H](C)[C@H]3N)c(CO)nc1Sc1ccnc(N)c1Cl` [Compound 1 Form B, {6-[(2-amino-3-chloropyridin-4-yl)sulfanyl]-3-[(3S,4S)-4-amino-3-methyl-2-oxa-8-azaspiro[4.5]decan-8-yl]-5-methylpyrazin-2-yl}methanol], which “Thermodynamic stability in words” value is on record?
A: Its value is “metastable form at all temperatures”.

Q: For `Cc1nc(N2CCC3(CC2)CO[C@@H](C)[C@H]3N)c(CO)nc1Sc1ccnc(N)c1Cl` [Compound 1 Form D, {6-[(2-amino-3-chloropyridin-4-yl)sulfanyl]-3-[(3S,4S)-4-amino-3-methyl-2-oxa-8-azaspiro[4.5]decan-8-yl]-5-methylpyrazin-2-yl}methanol], which “Conversion between Forms A, C” value is on record?
A: Its value is “immediate (and reversible)”.

Q: What about the “Relative Thermodynamic Stability” value (above ~80° C.) of the same compound?
A: The value was “A > (C and D and B)”.

Q: What about the “Temperature … (physically) stable” value of the same compound?
A: Its value is less than 43 °C.

Q: And the “Temperature … (physically) stable” value (listed as Form D)?
A: The value was less than 43 °C.

Q: What about the “Relative Thermodynamic Stability” value (between ~43 and ~65° C.) of the same compound?
A: The value was “C > D > A > B”.

Q: And the “Relative Thermodynamic Stability” value (between ~65 and ~80° C.)?
A: The value was “C > A > (D and B)”.

Q: What about the “Relative Thermodynamic Stability” value (subambient up to ~43° C.) of the same compound?
A: The value was “D > C > A > B”.

Q: With `Cc1nc(N2CCC3(CC2)CO[C@@H](C)[C@H]3N)c(CO)nc1Sc1ccnc(N)c1Cl` [Compound 1 Form C, {6-[(2-amino-3-chloropyridin-4-yl)sulfanyl]-3-[(3S,4S)-4-amino-3-methyl-2-oxa-8-azaspiro[4.5]decan-8-yl]-5-methylpyrazin-2-yl}methanol] as the compound, how does the “Conversion between Forms A, C” value read?
A: The value was “immediate (and reversible)”.

Q: What about the “Relative Thermodynamic Stability” value (above ~80° C.) of the same compound?
A: Its value is “A > (C and D and B)”.

Q: And the “Relative Thermodynamic Stability” value (between ~43 and ~65° C.)?
A: The value was “C > D > A > B”.

Q: What about the “Relative Thermodynamic Stability” value (between ~65 and ~80° C.) of the same compound?
A: Its value is “C > A > (D and B)”.

Q: What about the “Relative Thermodynamic Stability” value (subambient up to ~43° C.) of the same compound?
A: Its value is “D > C > A > B”.

Q: And the “Estimated Transition Point Temperature between Enantiotropic Polymorphs, to Form D” value?
A: Its value is roughly 43 °C.
